Where only a bound is given, the exact number is not on record here.

System in one data set: not listed separately
Put plainly: Oral bioavailability in rat. The class given is ADME, organism-based. As to conditions: in vivo.
Broadly, the bioavailability is dose-corrected exposure relative to a reference, in per cent. Turning to `FC1CCN(CCc2ccc(C3CCC4(CC3)OOC3(OO4)C4CC5CC(C4)CC3C5)cc2)CC1` (stereo unspecified), the bioavailability is 62%.

`c1cc([C@H]2CC[C@]3(CC2)OOC2(O3)C3CC4CC(C3)CC2C4)ccc1OCCN1CCOCC1` (stereo partly specified): the bioavailability was found to be 76%.

System in a further data set: not listed separately
Put plainly: Stability of the compound at pH 2 assessed as half-life. It is filed as physicochemical. As to conditions: buffer.
Turning to `O=C(O)CCC/C=C\C[C@@H]1CO[C@H](C(F)(F)F)O[C@@H]1c1ccccc1O`, the t1/2 came out at 7 yr.

As a reminder, the half-life is the time in which the quantity being followed falls by half. For the compound `Nc1nc2c(ncn2[C@H]2C=C[C@@H](CO)O2)c(=O)[nH]1`, the half-life was less than 120 s.

Turning to `CC1(C)OC[C@@H](C/C=C\CCCC(=O)O)[C@@H](c2ccccc2O)O1`, the half-life is 56 s.

System in a further data set: not listed separately
Put plainly: Dissociation constant, pKa of the compound.
Settings: not given
It is filed as physicochemical.
One may read the pKa as the pH at which an ionisable group is half protonated. Higher therefore signals a weaker acid or stronger base. In turn, `CCC(C)n1ncn(-c2ccc(N3CCN(c4ccc(OCC5COC(Cn6cncn6)(c6ccc(Cl)cc6Cl)O5)cc4)CC3)cc2)c1=O` (stereo unspecified) [ITRACONAZOLE] came in with a pKa of 3.7.

System in another data set: not listed separately
Put plainly: Stability of the compound in 0.01 N HCL at pH 2.0 assessed as half-life. The class given is physicochemical.
Settings: not given
With `C[C@H]1[C@@H](Cc2ccccc2)O[C@@H]2O[C@@]3(C)CC[C@H]4[C@H](C)CC[C@@H]1[C@@]24OO3`, the half-life was 165 h.

Take `CCCC[C@H]1O[C@@H]2O[C@@]3(C)CC[C@H]4[C@H](C)CC[C@@H]([C@H]1C)[C@@]24OO3`: the half-life is 165 h.

For the compound `C[C@H]1[C@@H](CCCCC(=O)O)O[C@@H]2O[C@@]3(C)CC[C@H]4[C@H](C)CC[C@@H]1[C@@]24OO3`, the half-life is 165 h.

Turning to `C[C@H]1[C@@H](OCc2ccc(C(=O)O)cc2)O[C@@H]2O[C@@]3(C)CC[C@H]4[C@H](C)CC[C@@H]1[C@@]24OO3`, the half-life was 11 h.

Take `C[C@H]1[C@@H](CCCC(=O)O)O[C@@H]2O[C@@]3(C)CC[C@H]4[C@H](C)CC[C@@H]1[C@@]24OO3`: the half-life is 165 h.

Consider `C[C@H]1[C@@H](CCc2ccc(C(=O)O)cc2)O[C@@H]2O[C@@]3(C)CC[C@H]4[C@H](C)CC[C@@H]1[C@@]24OO3`, for which the half-life was 165 h.

Consider `C[C@@H]1CC[C@H]2[C@@H](C)CO[C@@H]3O[C@@]4(C)CC[C@@H]1[C@]32OO4`, for which the half-life was 165 h.

With `C[C@H]1[C@@H](O[C@H](CCC(=O)O)c2ccc(Cl)cc2)O[C@@H]2O[C@@]3(C)CC[C@H]4[C@H](C)CC[C@@H]1[C@@]24OO3`, the half-life is 13 h.

System in the next data set: not listed separately
The experiment in a line: Half-life in human plasma. The class given is ADME.
Settings: not given
In turn, `N=C(N)NCCN1CCCCCCC1` [GUANETHIDINE] gave a half-life of 36 h.

Consider `N=C(N)NCC1COC2(CCCCC2)O1` (stereo unspecified), for which the half-life was 12 h.

Turning to `COC(=O)N[C@H](C(=O)N1CCC[C@H]1c1ncc(-c2ccc(-c3ccc(-c4cnc([C@@H]5CC6(CN5C(=O)[C@@H](NC(=O)OC)C(C)C)OCCO6)[nH]4)cc3)cc2)[nH]1)C(C)C`, the half-life is 8 h.

With `COC(=O)N[C@H](C(=O)N1CCC[C@H]1c1nc(-c2ccc(-c3ccc(-c4c[nH]c([C@@H]5CCCN5C(=O)[C@@H](NC(=O)OC)C(C)C)n4)cc3)cc2)c[nH]1)C(C)C`, the half-life is 12 h.

Turning to `Cn1c(=O)c2c(ncn2CC2OCCO2)n(C)c1=O` [DOXOFYLLINE], the half-life is 7 h.

System in the next data set: not listed separately
Put plainly: Stability of the compound in 1M HCL buffer assessed as drug degradation by measuring rate constant by FRET-based assay. It is filed as physicochemical.
Settings: not given
With `COc1cc(/N=N/c2ccc([N+](=O)[O-])cc2)c(OC)cc1/N=N/c1ccc(N(C)CCCC(=O)NCCSC2CC(=O)N(CCC3OCC(C(=O)NCCCNC(=O)c4ccc(-c5c6ccc(=[N+](C)C)cc-6oc6cc(N(C)C)ccc56)c(C(=O)[O-])c4)CO3)C2=O)cc1` (stereo unspecified), the K is reported as 2.28 10^-6/s.

With `COc1cc(/N=N/c2ccc([N+](=O)[O-])cc2)c(OC)cc1/N=N/c1ccc(N(C)CCCC(=O)NCCSC2CC(=O)N(CC3OCC(C(=O)NCCCNC(=O)c4ccc(C(=O)[O-])c(-c5c6ccc(=[N+](C)C)cc-6oc6cc(N(C)C)ccc56)c4)O3)C2=O)cc1` (stereo unspecified), the K is reported as 1.59 10^-6/s.

System in the next data set: not listed separately
The experiment in a line: Oral bioavailability in human. It is filed as ADME, organism-based. As to conditions: in vivo.
The compound `Nc1ccn([C@H]2CC[C@@H](CO)O2)c(=O)n1` [ZALCITABINE] yielded a bioavailability of 80%.

Consider `Cn1c(=O)c2c(ncn2CC2OCCO2)n(C)c1=O` [DOXOFYLLINE], for which the bioavailability was 63%.

Regarding `Nc1ccn([C@@H]2O[C@H](CO)[C@@H](O)[C@@H]2O)c(=O)n1` [CYTARABINE], the bioavailability worked out at 20%.

Regarding `Nc1nc(Cl)nc2c1ncn2[C@H]1C[C@H](O)[C@@H](CO)O1` [CLADRIBINE], the bioavailability was 40%.

The target of a further data set is Substance-P receptor (Homo sapiens, UniProt P25103). Put plainly: Displacement of [125I]-labeled SP from human NK-1 receptor expressed in CHO cells. It is filed as cell-based.
Sequence of Substance-P receptor (P25103 whole entry): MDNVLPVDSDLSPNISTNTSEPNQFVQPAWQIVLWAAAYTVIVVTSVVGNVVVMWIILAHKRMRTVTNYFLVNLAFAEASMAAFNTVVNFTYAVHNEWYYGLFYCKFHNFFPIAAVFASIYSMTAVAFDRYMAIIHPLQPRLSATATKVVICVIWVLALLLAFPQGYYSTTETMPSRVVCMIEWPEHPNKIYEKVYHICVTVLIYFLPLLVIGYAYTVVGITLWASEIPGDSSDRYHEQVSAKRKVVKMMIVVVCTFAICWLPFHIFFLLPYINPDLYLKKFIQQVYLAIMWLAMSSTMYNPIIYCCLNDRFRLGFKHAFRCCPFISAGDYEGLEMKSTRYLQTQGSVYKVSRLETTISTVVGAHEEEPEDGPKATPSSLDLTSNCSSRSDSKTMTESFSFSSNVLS
Settings: not given
(Loss of bound radioactivity is the signal in a displacement assay; it reports binding, not function.)
As a reminder, the IC50 is the concentration that inhibits the measured activity by half. In turn, `Fc1ccc([C@@H]2NCCO[C@@]23CC[C@@H](c2ccccc2C(F)(F)F)CO3)cc1` gave an IC50 of 28 nM.

For the compound `Fc1ccc([C@@H]2NCCO[C@]23CC[C@H](c2ccccc2C(F)(F)F)CO3)cc1`, the IC50 turned out to be 400 nM.

`COc1cccc(-n2nnnc2C(F)(F)F)c1[C@H]1CO[C@@]2(C1)OCCN[C@H]2c1ccc(F)cc1` showed an IC50 of 0.1 nM.

The compound `Fc1ccc([C@@H]2NCCO[C@@]23C[C@@H](c2ccccc2C(F)(F)F)CO3)cc1` returned an IC50 of 24 nM.

Compound `CN(C)Cc1[nH]nnc1CN1CCO[C@@]2(CC[C@@H](c3ccccc3OC(F)(F)F)CO2)[C@@H]1c1ccc(F)cc1` displayed an IC50 of 1.4 nM.

In turn, `CN(C)Cc1[nH]nnc1CN1CCO[C@@]2(CC[C@@H](c3ccccc3C(F)(F)F)CO2)[C@@H]1c1ccc(F)cc1` yielded an IC50 of 1.1 nM.

System in another data set: not listed separately
Put plainly: Chemical stability of the compound assessed as acid-catalyzed hydrolysis by measuring rate constant. It is filed as physicochemical.
Settings: not given
Consider `Nc1ncnc2c1ncn2[C@H]1CC[C@@H](CO)O1`, for which the Drug metabolism came to 35 L/mol/min.

For the compound `Nc1ncnc2c1ncn2[C@@H]1O[C@H](CO)C[C@@H]1O`, the Drug metabolism was 0.057 L/mol/min.

On to `Nc1ncnc2c1ncn2[C@H]1C[C@H](O)[C@@H](CO)O1` [DEOXYADENOSINE], for which the Drug metabolism turned out to be 0.96 L/mol/min.

System in another data set: not listed separately
The experiment in a line: Oral bioavailability in dog. The following applies: in vivo. It is filed as ADME, organism-based, Canis lupus familiaris.
For the compound `FC1CCN(CCc2ccc(C3CCC4(CC3)OOC3(OO4)C4CC5CC(C4)CC3C5)cc2)CC1` (stereo unspecified), the bioavailability came out at 40%.

System in the next data set: not listed separately
The experiment in a line: Oral bioavailability in mouse. The class given is ADME, organism-based. The following applies: in vivo.
On to `FC1CCN(CCc2ccc(C3CCC4(CC3)OOC3(OO4)C4CC5CC(C4)CC3C5)cc2)CC1` (stereo unspecified), for which the bioavailability is 82%.

For the origin of these results see ChEMBL document CHEMBL5244275, “Geminal Diheteroatomic Motifs: Some Applications of Acetals, Ketals, and Their Sulfur and Nitrogen Homologues in Medicinal Chemistry and Drug Design” (J Med Chem, 2021).
